Patent US11421001B2, “Template-fixed peptidomimetics” (UNIVERSITAET ZUERICH, priority 2007, dated 2022)
Positions of bridges follow the written chain, without caps; N, C: chain ends. Non-standard residues stand in square brackets, D forms with d. Residues, ends and D or L forms follow the SMILES beside them. Dab = NCC[C@H](N)C(=O)O

Columns and labels:
[1] = Plasma stability, human plasma; assay type: in vitro ADME; settings: read-out: Stability human Plasma t1/2
[2] = system: hematopoietic progenitors (CFU-GM); test: Stem cell mobilisation, mice model (CFU-GM); assay type: in vivo, mouse; settings: C3H/HeJ mice, 5 mg/kg s.c.
Excerpt: The aim of the study was to evaluate the ability of the compound of Example 1 and Example 2 to mobilize hematopoietic progenitors from mouse bone marrow to peripheral blood using in-vitro hematopoietic colony assays. In humans, accurate information about progenitor cell mobilization is provided by the colony forming unit granulocyte-monocyte (CFU-GM) assay or by determining the abundance of CD34(+) cells by FACS analysis (see ref. 10 below). In mice, CD34 is not a useful marker for stem cells; instead the CFU-GM is more commonly used (see ref. 11 below).
In order to assess the ability of the compounds of Example 1 and Example 2 to mobilize murine stem cells (CFU-GM) C3H/HeJ female mice (Jackson Laboratory) were injected s.c. with 5 mg/k, of the compounds of Example 1 and of Example 2 and as reference AMD3100 (Broxmeyer, et al, J Exp Med 201, 1307-1318), (currently undergoing Phase III clinical trials) for stem cell mobilisation. Peripheral blood samples from 5 animals per test group were collected at each time point and nucleated cell counts performed as standard assays.

[3] = system: human red blood cells (hRBC); test: Hemolysis; assay type: cell-based
Experimental: The peptides were tested for their hemolytic activity against human red blood cells (hRBC). Fresh hRBC were washed three times with phosphate buffered saline (PBS) by centrifugation for 10 min at 2000×g. Peptides at a concentration of 100 μM were incubated with 20% v/v hRBC for 1 hour at 37° C. The final erythrocyte concentration was approximately 0.9×10^9 cells per ml. A value of 0% resp. 100% cell lysis was determined by incubation of the hRBC in the presence of PBS alone and respectively 0.1% Triton X-100 in H2O. The samples were centrifuged and the supernatant was 20-fold diluted in PBS buffer and the optical density (OD) of the sample at […] was measured. The 100% lyses value (OD540H2O) gave an OD540 of approximately 1.3-1.8. Percent hemolysis was calculated as follows: (OD540peptide/OD540H2O)×100%.

[4] = Cytotoxicity assay (MTT reduction); assay type: cell-based; settings: human, HELA cells (Acc57), peptides at 12.5, 25 and 50 μM, trend line, read-out: Cyto-toxicity LC50/GI50 Hela cells
Experimental: The cytotoxicity of the peptides to HELA cells (Acc57) and COS-7 cells (CRL-1651) was determined using the MTT reduction assay [see ref. 6 and 7, below]. Briefly the method was as follows: HELA cells and COS-7 cells were seeded at 7.0×10^3 and, respectively, 4.5×10^3 cells per well and grown in 96-well microtiter plates for 24 hours at 37° C. at 5% CO2. At this point, time zero (Tz) was determined by MTT reduction (see below). The supernatant of the remaining wells was discarded, and fresh medium and the peptides in serial dilutions of 12.5, 25 and 50 μM were pipetted into the wells. Each peptide concentration was assayed in triplicate. Incubation of the cells was continued for 48 hours at 37° C. at 5% CO2. Wells were then washed once with PBS and subsequently 100 μl MTT reagent (0.5 mg/mL in medium RPMI1640 and, respectively, DMEM) was added to the wells. This was incubated at 37° C. for 2 hours and subsequently the medium was aspirated and 100 μl isopropanol was added to each well. The absorbance at 595 nm of the solubilized product was measured (OD595peptide). For each concentration averages were calculated from triplicates. The percentage of growth was calculated as follows: (OD595peptide−OD595Tz−OD595Empty well)/(OD595Tz−OD595Empty well)×100% and was plotted for each peptide concentration. […]

For C[C@@H]1NC(=O)[C@H](CO)NC(=O)[C@@H]2CSSC[C@H](NC(=O)[C@H](Cc3ccc(O)cc3)NC(=O)[C@H](CCCNC(=N)N)NC(=O)[C@H](CCN)NC(=O)[C@H]3CCCN3C1=O)C(=O)N[C@@H](Cc1ccc(O)cc1)C(=O)N[C@@H](CCC(N)=O)C(=O)N[C@@H](CCCCN)C(=O)N1CCC[C@@H]1C(=O)N1CCC[C@H]1C(=O)N[C@@H](Cc1ccc(O)cc1)C(=O)N[C@@H](Cc1c[nH]cn1)C(=O)N[C@@H](Cc1ccc(O)cc1)C(=O)N2 [Example 2] (cyclo(YHYCSA[dP][Dab]RYCYQK[dP]P); disulfide 4-11), the half-life at 10 µM [1] was greater than 5 h, the “time of maximal effect on CFU-GM blood cell numbers” value [2] was 240 min and the “effect on CFU-GM blood cell numbers / progenitors over time” value ([2]; compared to control mice) was “increased the CFU-GM blood cell numbers up to six hours post administration”. The “Hemo-lysis at 100 μM” value [3] was 0.3 and the CC50 at 48 h [4] was 94 µM.
